From publication PMC9516332 (Frontiers in Oncology, 2022)
Like-named read-outs stand apart in the source and are kept apart here.

Key:
134 cancer cell lines = assay: Cell viability assay (ATPlite, 72 hours), IC50 on cancer cell line panel
AP-1060 (ETV6-NTRK3) = assay: Cell viability assay
[1] = biological target: panel of 255 wild-type kinases (Homo sapiens, UniProt Q9H422); assay: Kinase panel profiling at 1 µmol/L (MSA or IMAP), percentage inhibition; type: biochemical; details: kinase HIPK3; 1 µmol/L single concentration; read-out: %-inhibition at 1 µmol/L, HIPK3
[2] = biological target: panel of 255 wild-type kinases (Homo sapiens, UniProt P06241); assay: as above; type: biochemical; details: kinase FYN [isoform a]; 1 µmol/L single concentration; read-out: %-inhibition at 1 µmol/L, FYN [isoform a]
[3] = biological target: panel of 255 wild-type kinases (Homo sapiens, UniProt Q13882); assay: as above; type: biochemical; details: BRK kinase assay; 1 µmol/L single concentration; read-out: %-inhibition BRK
[4] = biological target: panel of 255 wild-type kinases (Homo sapiens, UniProt Q16816); assay: as above; type: biochemical; details: kinase PHKG1; 1 µmol/L single concentration; read-out: %-inhibition at 1 µmol/L, PHKG1
[5] = biological target: panel of 255 wild-type kinases (Homo sapiens, UniProt P48729); assay: as above; type: biochemical; details: kinase CK1α; 1 µmol/L single concentration; read-out: %-inhibition at 1 µmol/L, CK1α

IC50 (134 cancer cell lines; Homo sapiens, NCI-H82, read-out: IC50 in cell proliferation assay, cell line NCI-H82): 10.9 µM | IC50 (134 cancer cell lines; Homo sapiens, NCI-H460, read-out: IC50 in cell proliferation assay, NCI-H460 cell line): 9.4 µM | IC50 (134 cancer cell lines; Homo sapiens, NCI-H661, read-out: IC50 in cell proliferation assay, NCI-H661 cell line): 2.1 µM | IC50 (134 cancer cell lines; Homo sapiens, NCI-H716, read-out: IC50 in cell proliferation assay, cell line NCI-H716 (FGFR2-COL14A1)): 0.244 µM | IC50 (134 cancer cell lines; Homo sapiens, NCI-H1650, read-out: IC50 in cell proliferation assay, NCI-H1650 cell line (EGFR exon19del)): 2.56 µM | IC50 (134 cancer cell lines; Homo sapiens, NCI-H1975, read-out: IC50 in cell proliferation assay, NCI-H1975 cell line (EGFR p.L858R + p.T790M)): 6.51 µM | IC50 (134 cancer cell lines; Homo sapiens, NCI-H2228, read-out: IC50 in cell proliferation assay, NCI-H2228 cell line (EML4-ALK)): 7.94 µM | IC50 (134 cancer cell lines; Homo sapiens, OVCAR-3, read-out: IC50 in cell proliferation assay, cell line OVCAR-3): 4.11 µM | IC50 (134 cancer cell lines; Homo sapiens, PFSK-1, read-out: IC50 in cell proliferation assay, cell line PFSK-1): 16.7 µM | IC50 (134 cancer cell lines; Homo sapiens, RL95-2, read-out: IC50 in cell proliferation assay, cell line RL95-2 (EGFR p.A289V)): 1.39 µM | IC50 (134 cancer cell lines; Homo sapiens, RPMI-7951, read-out: IC50 in cell proliferation assay, cell line RPMI-7951 (BRAF p.V600E)): 2.79 µM | IC50 (134 cancer cell lines; Homo sapiens, RS4-11, read-out: IC50 in cell proliferation assay, cell line RS4;11): 14.7 µM | IC50 (134 cancer cell lines; Homo sapiens, Rec1, read-out: IC50 in cell proliferation assay, cell line REC-1): 6.58 µM | IC50 (134 cancer cell lines; Homo sapiens, SHP77, read-out: IC50 in cell proliferation assay, cell line SHP-77): > 31.6 µM | IC50 (134 cancer cell lines; Homo sapiens, SK-BR-3, read-out: IC50 in cell proliferation assay, cell line SK-BR-3 (ERBB2 amplification)): 3.88 µM | IC50 (134 cancer cell lines; Homo sapiens, SK-N-AS, read-out: IC50 in cell proliferation assay, cell line SK-N-AS): 4.65 µM | IC50 (134 cancer cell lines; Homo sapiens, SK-N-FI, read-out: IC50 in cell proliferation assay, cell line SK-N-FI): 4.14 µM | IC50 (134 cancer cell lines; Homo sapiens, SK-N-MC, read-out: IC50 in cell proliferation assay, cell line SK-N-MC): 10.4 µM | IC50 (134 cancer cell lines; Homo sapiens, SK-N-SH, read-out: IC50 in cell proliferation assay, cell line SK-N-SH (ALK p.F1174L)): 1.65 µM | IC50 (134 cancer cell lines; Homo sapiens, SNU-5, read-out: IC50 in cell proliferation assay, cell line SNU-5 (MET amplification)): > 31.6 µM | IC50 (134 cancer cell lines; Homo sapiens, SNU-16, read-out: IC50 in cell proliferation assay, cell line SNU-16 (FGFR2 amplification)): 0.135 µM | IC50 (134 cancer cell lines; Homo sapiens, SNU-C2B, read-out: IC50 in cell proliferation assay, cell line SNU-C2B (EGFR p.R165Q)): 19.6 µM | IC50 (134 cancer cell lines; Homo sapiens, SU-DHL-1, read-out: IC50 in cell proliferation assay, cell line SU-DHL-1 (NPM1-ALK)): 11.4 µM | IC50 (134 cancer cell lines; Homo sapiens, SU-DHL-6, read-out: IC50 in cell proliferation assay, cell line SU-DHL-6): 1.93 µM | IC50 (134 cancer cell lines; Homo sapiens, SUP-T1, read-out: IC50 in cell proliferation assay, cell line SUP-T1): 30.7 µM | IC50 (134 cancer cell lines; Homo sapiens, SW48, read-out: IC50 in cell proliferation assay, cell line SW48 (EGFR p.G719S)): 4.57 µM | IC50 (134 cancer cell lines; Homo sapiens, SW480, read-out: IC50 in cell proliferation assay, cell line SW480): 15.4 µM | IC50 (134 cancer cell lines; Homo sapiens, SW626, read-out: IC50 in cell proliferation assay, cell line SW626): 9.63 µM | IC50 (134 cancer cell lines; Homo sapiens, SW780, read-out: IC50 in cell proliferation assay, cell line SW780 (FGFR3-BAIAP2L1)): 1.41 µM | IC50 (134 cancer cell lines; Homo sapiens, SW837, read-out: IC50 in cell proliferation assay, cell line SW837): 12.9 µM | IC50 (134 cancer cell lines; Homo sapiens, SW872, read-out: IC50 in cell proliferation assay, cell line SW872 (BRAF p.V600E)): 5.58 µM | IC50 (134 cancer cell lines; Homo sapiens, SW900, read-out: IC50 in cell proliferation assay, cell line SW900): 5.11 µM | IC50 (134 cancer cell lines; Homo sapiens, SW948, read-out: IC50 in cell proliferation assay, cell line SW948): 15.1 µM | IC50 (134 cancer cell lines; Homo sapiens, SW982, read-out: IC50 in cell proliferation assay, cell line SW982 (BRAF p.V600E)): 1.61 µM | IC50 (134 cancer cell lines; Homo sapiens, SW-620, read-out: IC50 in cell proliferation assay, cell line SW620): 2.46 µM | IC50 (134 cancer cell lines; Homo sapiens, T98G, read-out: IC50 in cell proliferation assay, cell line T98G): 0.785 µM | IC50 (134 cancer cell lines; Homo sapiens, TCC-SUP, read-out: IC50 in cell proliferation assay, cell line TCCSUP): 5.55 µM | IC50 (134 cancer cell lines; Homo sapiens, THP-1, read-out: IC50 in cell proliferation assay, cell line THP-1): > 31.6 µM | IC50 (134 cancer cell lines; Homo sapiens, U2OS, read-out: IC50 in cell proliferation assay, cell line U2OS): 2.67 µM | IC50 (134 cancer cell lines; Homo sapiens, U-87 MG, read-out: IC50 in cell proliferation assay, cell line U-87MG ATCC): 20.8 µM | IC50 (134 cancer cell lines; Homo sapiens, U-118-MG, read-out: IC50 in cell proliferation assay, cell line U-118MG): 2.78 µM | IC50 (134 cancer cell lines; Homo sapiens, UMUC3, read-out: IC50 in cell proliferation assay, cell line UM-UC-3): 2.83 µM | IC50 (134 cancer cell lines; Hs766T, read-out: IC50 in cell proliferation assay, Hs 766T cell line): 3.3 µM | IC50 (134 cancer cell lines; L-82, read-out: IC50 in cell proliferation assay, L-82 cell line (NPM1-ALK)): 11.1 µM | IC50 (134 cancer cell lines; Rh30, read-out: IC50 in cell proliferation assay, cell line Rh30): 6.62 µM | IC50 (134 cancer cell lines; read-out: IC50 in cell proliferation assay, 11-18 cell line (EGFR p.L858R)): 2.07 µM | IC50 (134 cancer cell lines; read-out: IC50 in cell proliferation assay, Hs 852.T cell line): 10.8 µM | IC50 (134 cancer cell lines; read-out: IC50 in cell proliferation assay, JAR cell line): 5.16 µM | IC50 (134 cancer cell lines; read-out: IC50 in cell proliferation assay, cell line 5637): 4.55 µM | IC50 (134 cancer cell lines; read-out: IC50 in cell proliferation assay, cell line A-388): 2.11 µM | IC50 (134 cancer cell lines; read-out: IC50 in cell proliferation assay, cell line DB): 13.3 µM | IC50 (134 cancer cell lines; read-out: IC50 in cell proliferation assay, cell line DEL (NPM1-ALK)): 16.1 µM | IC50 (134 cancer cell lines; read-out: IC50 in cell proliferation assay, cell line ES-2 (BRAF p.V600E)): 7.67 µM | IC50 (134 cancer cell lines; read-out: IC50 in cell proliferation assay, cell line PA-1): 4.5 µM | IC50 (134 cancer cell lines; read-out: IC50 in cell proliferation assay, cell line PC-3): 6.08 µM | IC50 (134 cancer cell lines; read-out: IC50 in cell proliferation assay, cell line RD): 14.6 µM | IC50 (134 cancer cell lines; read-out: IC50 in cell proliferation assay, cell line RKO (BRAF p.V600E)): 11.3 µM | IC50 (134 cancer cell lines; read-out: IC50 in cell proliferation assay, cell line RL): 5.67 µM | IC50 (134 cancer cell lines; read-out: IC50 in cell proliferation assay, cell line RT-4 (FGFR3-TACC3)): 0.453 µM | IC50 (134 cancer cell lines; read-out: IC50 in cell proliferation assay, cell line SR (NPM1-ALK)): 8.14 µM | IC50 (134 cancer cell lines; read-out: IC50 in cell proliferation assay, cell line T24): 6.55 µM | IC50 (134 cancer cell lines; read-out: IC50 in cell proliferation assay, cell line TT (RET p.C634W)): 0.055 µM | IC50 (134 cancer cell lines; read-out: IC50 in cell proliferation assay, cell line VA-ES-BJ): 7.77 µM | inhibition at 1 µM [1]: 9% | inhibition at 1 µM [2]: 82% | inhibition at 1 µM [3]: 49% | inhibition at 1 µM [4]: 1.67% | inhibition at 1 µM [5]: -2.22%
SMILES: CO[C@]1(C(=O)N[C@@H](C)c2ccc(-n3cc(F)cn3)nc2)CC[C@H](c2nc(C)cc(Nc3cc(C)[nH]n3)n2)CC1 [pralsetinib]
higher sensitivity of AP-1060 to pralsetinib compared to selpercatinib (AP-1060 (ETV6-NTRK3); cell viability): ~20 fold | IC50 (AP-1060 (ETV6-NTRK3); read-out: IC50 in cell proliferation assay): 0.206 µM
